“Also recorded” adds a separate entry of the source.
What was measured:
[1] = Acid lability of glycolipids (aqueous HCl/methanol, TLC mobility); format: physicochemical; details: methanol-aqueous 0.1N HCl 1:1, 90° C., 10 min
Experimental: Acid-labile glycolipids were detected by hydrolysis of samples in methanol-aqueous 0.1N HCl (1:1, v/v) heated at 90° C. for 10 min, followed by Folch partitioning and TLC examination of lower phase. The glycolipid with high TLC mobility converting to the same mobility as normal cerebroside by this treatment was regarded as the acid-labile cerebroside.

[2] = Cytotoxicity and growth inhibition in neuroblastoma cell lines; format: cell-based; details: various neuroblastoma cell lines; read-out: concentration at which cell growth was inhibited, morphology changed and cells eventually died
neuroblastoma cell lines = assay: as above; format: cell-based; details: various neuroblastoma cell lines
[3] = system: mouse neuroblastoma Neuro-2A cells; details: previously reported for a ganglioside effect; cited from earlier work

CCCCCCCCCCCCCCC[C@@H](O)C(=O)N[C@@H](CO[C@@H]1O[C@H](CO)[C@@H](O)[C@H](O)[C@H]1O)[C@H](O)/C=C/CC/C=C(\C)CCCCCCCCC [Cerebroside]
TLC mobility after acid hydrolysis [1]: did not show altered TLC mobility

CCCCCCCCCCCCC/C=C/[C@@H](O)[C@@H](N)CO[C@@H]1O[C@H](CO)[C@H](O)[C@H](O)[C@H]1O [psychosine, galactosylsphingosine]
MCC [2]: 10 to 20 µg/mL | cytotoxic effect / growth inhibition (in words) (neuroblastoma cell lines): strong cytotoxic effect; also recorded: cytotoxic effects and inhibited cell growth even at very low doses

GT1b
concentration required for ganglioside effect on neurite formation [3]: 200 µg/mL
